“Also recorded” adds a separate entry of the source.
Key:
[1] = tested on: senile plaques and NFT in 5×FAD, 3×Tg and Tau P301S mice; test: brain section staining after in vivo administration, senile plaques and NFT; set-up: species or system mouse
Description: (§1) […] In 2 h, the mice were sacrificed and stained the mouse brain sections with anti-Aβ, AT8 and p-S129 and ThS, respectively.
(§2) The p-S129 positive Lewy bodies in A53T PD mice were further confirmed by anti-aggregated α-Syn 5G2 antibody.

[2] = target: T1, senile plaques in 5×FAD and 3×Tg mice brain sections (Homo sapiens, UniProt P05067); test: staining of mouse brain sections with senile plaques; format: binding
T1 construct: Aβ-enriched senile plaques; from tissue; host or cells: brain sections of 5×FAD and 3×Tg mice
T1 sequence (P05067 672-713 limits assumed): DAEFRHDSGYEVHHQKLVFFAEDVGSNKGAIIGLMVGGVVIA

[3] = target: T2, Lewy bodies positive with anti-p-α-Syn S129 in A53T PD mouse model (Homo sapiens, UniProt P37840, A53T); test: brain section staining after in vivo administration, Lewy bodies
T2 construct: from tissue; host or cells: brain (substantia nigra) of wild-type mice injected with α-Syn A53T virus
Description: as §1, §2

[4] = target: α-Syn PFFs (Homo sapiens, UniProt P37840); test: fluorescence spectroscopy titration with α-Syn PFFs; format: binding; conditions: 0.08 μM fibrils, 5 μM small molecule; result in words
Description: (§3) A fluorescent titration assay was conducted. The fluorescent emission intensities were determined with 0.08 μM of various fibrils in the presence of 5 μM of the small molecules.
(§4) To further investigate the selected compounds binding activities with α-Syn PFFs, fluorescence spectroscopy titrations were conducted to quantitatively measure compounds emission intensity when interacting with different concentrations of α-Syn PFFs. The UV spectrum of each compound was determined and selected for the optimal wavelength to conduct the fluorescence spectroscopic studies.

[5] = tested on: senile plaques or NFT in AD; test: ex vivo screening on AD patient brain sections; format: binding, human
Source text: (§5) Ex vivo screening was extended into human DLB, MSA and AD patient samples. […] Since there are detectable α-Syn aggregates in AD patient brains, these compounds colocalized with p-S129 positive α-Syn inclusions.
(§6) The ex vivo screening was extended into human DLB, MSA and AD patient samples. Neurodegenerative disease of DLB (dementia with Lewy Bodies) and MSA belongs to synucleinopathies with well-defined Lewy bodies.

[6] = target: T3, LBs and LNs in DLB and MSA patient brains (Homo sapiens, UniProt P37840); test: ex vivo screening on DLB and MSA patient brain sections; format: binding
T3 construct: from tissue; host or cells: brain sections of DLB and MSA patients
Source text: as §5, §6

[7] = target: T4, Lewy bodies in the brain sections from LBD patients (Homo sapiens, UniProt P37840); test: autoradiography with [18F]F0502B, human brain slices; format: binding; conditions: excessive cold compound
T4 construct: from tissue; host or cells: brain sections of LBD patients
Description: [^18F]F0502B was evaluated in vitro and ex vivo binding assays to validate its specificity. α-Syn, Tau and Aβ PFFs were respectively incubated with increasing concentrations of [^18F]F0502B. The binding data were analyzed by curve fitting using nonlinear regression to obtain Kd and Bmax values. The Kd and a Bmax manifested the specific binding affinity with different fibrils. […] Autoradiography with [^18F]F0502B in human brain slices was performed. […] Together, these findings support that F0502B specifically and tightly binds to α-Syn fibrils in the Lewy bodies.

[8] = tested on: α-Syn aggregated neurons; test: neuronal α-Syn aggregation model, fluorescent microscopy; format: cell-based; conditions: primary cultured neurons, AAV-α-Syn plus α-Syn PFFs
Source text: A series of derivatives were synthesized by including an amino group and a methyl group on benzothiazole to increase the brain permeability and fluorescent signals. The derivatives were subsequently subjected to α-Syn PFFs binding assay and counter-screening with Tau and Aβ PFFs. […] These compounds were screened on the neuronal α-Syn, Tau and Aβ aggregation model for the binding selectivity. Primary cultured neurons were infected with AAV-α-Syn, AAV-Tau FL for 7 days, then treated with α-Syn, Tau or Aβ PFFs. In a few days, the positive compounds were added in the primary neurons with indicated aggregates and analyzed under fluorescent microscopy.
Primary cultured neurons were infected with AAV-α-Syn, AAV-Tau FL or AAV-APP fragment virus for 7 days, and then treated with α-Syn, Tau or Aβ PFFs by following the described protocols (Volpicelli-Daley et al., 2014). In a few days, the positive compounds were added in the primary neurons with indicated aggregation.

[9] = tested on: NFT in Tau P301S and 3×Tg mice brain sections; test: staining of mouse brain sections with NFT; format: binding
Description: (§7) To further explore whether the positive compounds selectively bind to the Lewy bodies, α-Syn A53T patient-derived mutant virus injected WT mice brain slices were employed. These mice display extensive Lewy bodies in the SN.
(§8) To further explore whether the positive compounds selectively bind to the Lewy bodies, a α-Syn A53T patient-derived mutant virus was injected into WT mice brain slices. These mice display extensive Lewy bodies in the Substantial nigra (SN). Moreover, P301S mice expressed neurofibrillary tangles (NFT). The Lewy bodies were labeled with p-α-Syn S129 antibody and the positive aggregates were also labeled with the fluorescent signals from the small molecules. […] However, it was worth noting that almost none of the tested compounds were reactive with NFT.

[10] = F0502B in vivo PK study and B/P ratios; set-up: species or system mouse; conditions: mice, i.v. 5 mg/kg
Description: To ensure that F0502B meets a PET tracer's kinetic criteria with rapid penetration into the brain and swift wash out, an in vivo PK study was performed in mice with i.v. injection of 5 mg/kg of F0502B.

[11] = target: α-Syn fibrils (Homo sapiens, UniProt P37840); test: competitive binding assay with α-Syn fibrils and [18F]F0502B; conditions: fixed concentrations of α-Syn fibrils and [18F]F0502B, increasing concentrations of cold compound
[12] = target: Tau PFFs (Homo sapiens, UniProt P10636); test: fluorescence spectroscopy titration with Tau PFFs; format: binding; conditions: 0.08 μM fibrils, 5 μM small molecule; result in words
Sequence of Tau PFFs (P10636 whole entry): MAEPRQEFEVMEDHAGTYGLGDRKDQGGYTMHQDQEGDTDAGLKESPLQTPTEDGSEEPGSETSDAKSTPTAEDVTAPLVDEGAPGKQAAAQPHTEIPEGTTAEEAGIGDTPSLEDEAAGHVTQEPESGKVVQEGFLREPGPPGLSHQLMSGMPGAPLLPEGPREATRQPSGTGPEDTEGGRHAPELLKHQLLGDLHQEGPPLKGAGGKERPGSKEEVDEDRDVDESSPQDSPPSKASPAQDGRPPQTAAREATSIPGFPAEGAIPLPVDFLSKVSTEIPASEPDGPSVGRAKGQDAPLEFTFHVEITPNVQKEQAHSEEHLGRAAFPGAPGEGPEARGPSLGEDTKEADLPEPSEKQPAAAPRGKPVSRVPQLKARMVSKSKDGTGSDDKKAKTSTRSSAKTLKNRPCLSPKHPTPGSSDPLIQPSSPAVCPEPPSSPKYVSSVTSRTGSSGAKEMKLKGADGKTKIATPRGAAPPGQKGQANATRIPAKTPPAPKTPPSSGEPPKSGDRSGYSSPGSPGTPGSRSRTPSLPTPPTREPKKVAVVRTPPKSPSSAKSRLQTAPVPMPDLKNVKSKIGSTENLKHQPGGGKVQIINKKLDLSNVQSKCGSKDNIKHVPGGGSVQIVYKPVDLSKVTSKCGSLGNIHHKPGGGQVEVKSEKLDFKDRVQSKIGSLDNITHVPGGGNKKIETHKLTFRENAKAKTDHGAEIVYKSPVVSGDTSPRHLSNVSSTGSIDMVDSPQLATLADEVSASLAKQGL
Description: as §3, §4

[13] = target: T5, Lewy bodies in α-Syn A53T virus injected WT mice brain slices (Homo sapiens, UniProt P37840, A53T); test: staining of mouse brain slices with Lewy bodies; format: binding
T5 construct: from tissue; host or cells: brain (substantia nigra) of wild-type mice injected with α-Syn A53T virus
Description: as §7, §8

[14] = target: T6, Aβ PFFs (Homo sapiens, UniProt P05067); test: fluorescence spectroscopy titration with Aβ PFFs; format: binding; conditions: 0.08 μM fibrils, 5 μM small molecule; result in words
T6 construct: counter-screening with Tau and Aβ PFFs
T6 sequence (P05067 672-713 limits assumed): as the sequence (P05067 672-713 limits assumed) above
Description: as §3, §4

For `Cc1cc2nc(/C=C/c3ccc(O)c(Br)c3)sc2cc1N(C)CCOCCF` [F0502B, (E)-2-bromo-4-(2-(6-((2-(2-fluoroethoxy)ethyl)(methyl)amino)-5-methylbenzo[d]thiazol-2-yl)vinyl)phenol], the “staining of senile plaques and NFT” value ([1]; F0502B 5 mg/kg i.v., 2 h, 5×FAD, 3×Tg, Tau P301S mice) was “does not co-stain Aβ or Tau aggregates”, the “staining of senile plaques or NFT by brain generated F0502B” value ([1]; two hours after tail injection of 2 mg/kg of compound 13, AD mouse models) was “not senile plaques or NFT in various AD mouse models” and the “staining of senile plaques” value [2] was “not senile plaques or NFT from 5×FAD, 3×Tg and Tau P301S mice”. The “co-localisation with anti-p-S129 stained Lewy bodies” value ([3]; F0502B 5 mg/kg i.v., mice sacrificed in 2 h, ThS stain on sections) was “colocalized with both F0502B and ThS”, the “staining of Lewy body by brain generated F0502B” value ([3]; two hours after tail injection of 2 mg/kg of compound 13, A53T mice) was “selectively stained Lewy body in A53T mice” and the “binding to α-Syn PFFs by fluorescent emission intensity” value [4] was “specifically associated with α-Syn fibrils”. The “staining of senile plaques or NFT (Aβ, AT8 positive aggregates)” value [5] was “not senile plaques or NFT from 5×FAD, 3×Tg and Tau P301S mice or AD patients”, the “staining of LBs and LNs” value [6] was “specifically associated with α-Syn aggregates” and the “blocking of [18F]F0502B binding in brain sections” value [7] was “binding activities were blocked by excessive cold F0502B”. For the same compound, the “fluorescent signal in α-Syn aggregated neurons” value [8] was “specifically associated with α-Syn aggregates”, the “staining of NFT” value [9] was “not senile plaques or NFT from 5×FAD, 3×Tg and Tau P301S mice” and the C1 rate [10] was “approximately 3.92 L/h/kg”. For the same compound, the decay in plasma ([10]; result in words) was “almost completely decayed at 8 h in the plasm”, the “brain entry and accumulation” value ([10]; result in words, 5 mg/kg) was “swiftly entered the brain and accumulated in the brain compared to the plasma; also recorded: preferentially enriched in the brain” and the Kp at 0.5 h ([10]; mouse, brain, iv, 0.5 h, read-out: B/P ratio) was 4.16. The Kp at 1 h ([10]; mouse, brain, iv, 1 h, read-out: B/P ratio) was 13.4, the Kp at 4 h ([10]; mouse, brain, iv, 4 h, read-out: B/P ratio) was 26 and the half-life ([10]; mouse, plasma, iv, read-out: half-life t1/2 (converted)) was 1.16 h. For the same compound, the “displacement of [18F]F0502B from α-Syn fibrils” value [11] was “selectively stripped off by increasing concentrations of cold F0502B”, the “binding to Tau PFFs by fluorescent emission intensity” value [12] was “barely bound to Aβ or Tau fibrils” and the “staining of Lewy bodies (p-α-Syn S129 positive)” value [13] was “specifically associated with α-Syn aggregates”. The “binding to Aβ PFFs by fluorescent emission intensity” value [14] was “barely bound to Aβ or Tau fibrils”.
